Assay results reported in ChEMBL document CHEMBL3832761, “MMV Pathogen Box Bioactivity Data” (2017).

Columns and labels:
Plasmodium falciparum [1] = assay: Antimalarial activity: Asexual Blood Stage Plasmodium falciparum 3D7 IC50 (uM); assay type: functional, organism-based
Plasmodium falciparum [2] = assay: Antimalarial activity: Asexual Blood Stage Plasmodium falciparum Dd2 IC50 (uM); assay type: functional, organism-based
Plasmodium falciparum [3] = assay: Antimalarial activity: Asexual Blood Stage Plasmodium falciparum W2 IC50 (uM); assay type: functional, organism-based
Plasmodium berghei = assay: Antimalarial activity: Liver Stage Plasmodium berghei sporozoite Luciferase assay: inhibition at 10 uM (%); assay type: functional
Plasmodium falciparum [4] = assay: Antimalarial activity: Gametocytes Plasmodium falciparum NF54 Gametocytes Stage V: inhibition at 10 uM (%); assay type: functional
HepG2 [5] = assay: HepG2 inhibition at 10 uM (%) Cytotoxicity; assay type: functional; settings: Homo sapiens
HepG2 [6] = assay: Cytotoxicity data HepG2 CC20 (uM); assay type: functional
MRC5 = assay: MRC5 CC50 (uM) Cytotoxicity; assay type: functional; settings: Homo sapiens
[7] = PMM CC50 (uM) Cytotoxicity; assay type: functional; settings: Macrophage
Trypanosoma cruzi = assay: AntiTrypanosoma cruzi activity IC50 (uM); assay type: functional, organism-based

SMILES | IC50 (Plasmodium falciparum [1]) | IC50 (Plasmodium falciparum [2]) | IC50 (Plasmodium falciparum [3]) | Inhibition (Plasmodium berghei) | Inhibition (Plasmodium falciparum [4]) | inhibition at 10 µM (HepG2 [5]) | CC20 (HepG2 [6]) | inhibition (Plasmodium berghei) | inhibition (Plasmodium falciparum [4]) | CC50 (MRC5) | CC50 [7] | IC50 (Trypanosoma cruzi)
Cc1cc(C)n(-c2ccc(NC(=O)C3CCN(Cc4cnc(C)s4)CC3)cc2)n1 | 780 nM | 2460 nM | 1870 nM | 38% | 0% | 18% | – | – | – | – | – | –
Cc1cc(NC(=O)c2ccc(S(=O)(=O)N(Cc3ccccc3)C(C)C)cc2)no1 | 980 nM | 1360 nM | 690 nM | 72% | 12.9% | 13% | – | – | – | – | – | –
COc1ccccc1C(C)NCC(=O)Nc1cc(C(F)(F)F)ccc1Cl (configuration not stated) | 1380 nM | 2820 nM | 1400 nM | 55% | 1% | 13% | 33700 nM | – | – | – | – | –
O=C(c1ccc(NCCO)cc1)C1C[C@H]1c1ccc(Cl)cc1 (some centres not stated) | 660 nM | 1630 nM | 2260 nM | 44% | 20% | 5% | 12800 nM | – | – | – | – | –
CN1CCN(S(=O)(=O)c2ccc(-c3ccc4c(Nc5ccc6nn[nH]c6c5)ccnc4c3)cc2)CC1 | 420 nM | 420 nM | 800 nM | 0% | 8% | 0% | >80000 nM | – | – | – | – | –
CCn1cnc2c(Nc3cc(F)cc(F)c3)nc(C#N)nc21 | 900 nM | 940 nM | 940 nM | 0% | 3% | 5% | – | – | – | – | – | –
Cc1cc(Cl)c(S(=O)(=O)N2CCCC2)cc1OCC(=O)NC1CCCCC1 | 300 nM | 210 nM | 160 nM | 81% | 0% | 32% | – | – | – | – | – | –
CNC(=O)c1cc(S(=O)(=O)N2CCN(c3ccccn3)CC2)cs1 | 1110 nM | 850 nM | 970 nM | 9% | 34% | 6% | >80000 nM | – | – | – | – | –
CC1CCCN(C(=O)C(C)Nc2cc(Cl)ccc2N2CCOCC2)C1 (configuration not stated) | 520 nM | 1320 nM | 880 nM | 46% | 9.53% | 13% | – | – | – | – | – | –
O=C(NCCN1CCCC1)c1cc(NCCN2CCOCC2)nc2ccc(Cl)cc12 | 100 nM | – | – | – | – | – | – | Series known to be active | Series known to be active | 33500 nM | – | –
CNCCC(Oc1ccc(C(F)(F)F)cc1)c1ccccc1 (configuration not stated) [FLUOXETINE] | – | – | – | – | – | – | 8970 nM | – | – | 11400 nM | 16000 nM | –
Cc1cc2ccccc2n1CC(=O)N1CC(C(=O)N2CCCCC2)Oc2ccccc21 (configuration not stated) | 1080 nM | 770 nM | 1050 nM | 1% | 30% | 10% | 21800 nM | – | – | – | – | –
Cc1noc(C)c1C(=O)N1CCCC(c2[nH]c3c(C)cccc3c2-c2ccncc2)C1 (configuration not stated) | 940 nM | 740 nM | 620 nM | 52% | 42% | 0% | >80000 nM | – | – | – | – | –
O=C(Nc1cnc2ccccc2c1)c1cccc(-n2cnnn2)c1 | 540 nM | 1880 nM | 580 nM | 0% | 1% | 0% | >80000 nM | – | – | – | – | –
CC(C)c1ncc(-c2ccncc2)c([C@H]2CC[C@H](CNC(=O)c3cccnc3)CC2)n1 | 840 nM | 1000 nM | 660 nM | 0% | 3% | 0% | >80000 nM | – | – | – | – | –
O=S(=O)(c1ccc(Cl)cc1)N1CCN(C(=S)NCc2ccco2)CC1 | 1200 nM | 760 nM | 1250 nM | 23% | 32% | 0% | 28300 nM | – | – | – | – | –
O=C([C@@H](c1ccc(Cl)cc1)c1cccnc1)N1CCN(c2ccc(C(F)(F)F)cc2)CC1 | – | – | – | – | – | – | 19000 nM | – | – | – | – | 10 nM
COc1ccccc1CNC(=O)c1cc(C2CC2)nc2c1cnn2C(C)C | 940 nM | 1500 nM | 2030 nM | 39% | 36% | 5% | 11300 nM | – | – | – | – | –
O=C(NC1CC1)c1ccc(CSCc2ccccc2Cl)o1 | 1420 nM | > 2000 nM | – | 96% | 14.9% | 33% | – | – | – | – | – | –
COc1ccc(-c2cncc3ccc(C(=O)NCCCn4ccnc4)nc23)cc1 | 1080 nM | 1350 nM | 1720 nM | 98% | 71.3% | 47% | – | – | – | – | – | –
CO/C=C(/C(=O)OC)c1ccccc1Oc1cc(Oc2ccccc2C#N)ncn1 [AZOXYSTROBIN] | 50 nM | 90 nM | 30 nM | 97% | 32.5% | 37% | – | – | – | > 28000 nM | – | –
